Assay results: patent publication US20250353827A1, “INDOLINE DERIVATIVES AS SEROTONERGIC AGENTS USEFUL FOR THE TREATMENT OF DISORDERS RELATED THERETO” (MINDSET PHARMA INC., priority 2022, published 2025)
Several values for one entry are separate records, joined by “and”; a condition that tells them apart may be missing. Equal values may be shown once. Read-outs that look alike come from different tables or passages of the source.

What was measured:
Male, C57BL/6J mice = test: Mouse head twitch; format: in vivo; conditions: for head twitches (mean): counted over 1 hr, male C57BL/6J mice; for other behavioural signs (locomotion, core body temperature, 5-HT syndrome) in words: psilocybin 3 and 10 mg/kg, 5-MeO DMT 3-30 mg/kg, II-1 0.3-30 mg/kg
Procedure: The effect of different doses of representative compounds of Formula I were evaluated on head-twitch response (HTR) and other behavioural responses as behavior-based models of psychedelic activity.
Male, C57BL/6J mice (body weight range 20-30 g) were dosed with the appropriate dose of test article, and following a 1-minute pre-treatment time, placed in individual observation chambers. Animals were visually assessed for the incidence head twitches continuously over a 1 hr period. Head twitches were defined as a rapid jerk of the head which was not elicited by an external tactile stimulus (Come and Pickering, Psychopharmacologia, 1967, 11(1): 65-78). Each head twitch was individually counted by a trained observer, and the data was expressed as the mean±SEM of 6-10 mice per group. Mice were used in a single experiment only.
The head twitch response of exemplary compound II-1 (1-30 mg/kg SC) was compared to 5-MeO DMT and psilocybin (FIG. 1, Table 6).

[1] = Liver microsomes stability, rat; conditions: for Remaining Percentage / Predicted hepatic CL / microsomal CLint at 2 μM / CLint scaled at 2 μM / half-life at 2 μM: rat; for Predicted hepatic CL / microsomal CLint at 2 μM / CLint scaled at 2 μM / half-life at 2 μM: liver microsomes
[2] = Liver microsomes stability, mouse; conditions: for half-life at 2 μM / microsomal CLint at 2 μM / CLint scaled at 2 μM: male, microsomes; for half-life at 2 μM / microsomal CLint at 2 μM / Remaining Percentage / CLint scaled at 2 μM: mouse
Procedure: (§1) The objective of this study was to estimate in vitro metabolic stability of representative compounds of the application in pooled human and male mouse liver microsomes. The concentrations of parent compounds in reaction systems were evaluated by LC-MS/MS for estimating the stability in pooled human and male mouse liver microsomes. The in vitro intrinsic clearances of test compounds were determined as well.
(§2) A master solution in the “Incubation Plate” containing phosphate buffer, ultra-pure H2O, MgCl2 solution and liver microsomes was made according to Table 3. The mixture was pre-warmed at 37° C. water bath for 5 minutes.
(§3) 40 μL of 10 mM NADPH solution was added to each well. The final concentration of NADPH was 1 mM. The negative control samples were prepared by replacing NADPH with 40 μL of ultra-pure H2O. Samples were prepared in duplicate. Negative controls were prepared in singlet.
(§4) The reaction was started with the addition of 4 μL of 200 μM test compounds or control compounds to each master solution to get the final concentration of 2 μM. This study was performed in duplicate.
(§5) Aliquots of 50 μL were taken from the reaction solution at 0, 15, 30, 45 and 60 minutes. The reaction solutions were stopped by the addition of 4 volumes of cold methanol with IS (100 nM alprazolam, 200 nM imipramine, 200 nM labetalol and 2 μM ketoprofen). Samples were centrifuged at 3,220 g for 40 minutes. Aliquot of 90 μL of the supernatant was mixed with 90 μL of ultra-pure H2O and then was used for LC-MS/MS analysis.
(§6) LC/MS analysis was performed for all samples from this study using a Shimadzu liquid chromatograph separation system equipped with degasser DGU-20A5R; solvent delivery unit LC-30AD; system controller SIL-30AC; column oven CTO-30A; CTC Analytics HTC PAL System. Mass spectrometric analysis was performed using a Triple Quad™ 5500 instrument.
(§7) All calculations were carried out using Microsoft Excel. Peak areas were determined from extracted ion chromatograms. The slope value, k, was determined by linear regression of the natural logarithm of the remaining percentage of the parent drug vs. incubation time curve.
(§8) The in vitro half-life (in vitro t1/2) was determined from the slope value:
(§9) Conversion of the in vitro t1/2 (min) into the in vitro intrinsic clearance (in vitro CLint, in μL/min/mg proteins) was done using the following equation (mean of duplicate determinations): […]

[3] = Liver microsomes stability, human; conditions: for Predicted hepatic CL: human liver microsomes; for Remaining Percentage / CLint scaled at 2 μM / half-life at 2 μM / microsomal CLint at 2 μM: human; for CLint scaled at 2 μM / half-life at 2 μM / microsomal CLint at 2 μM: pooled liver microsomes
Procedure: as §1, §2, §3, §4, §5, §6, §7, §8, §9

[4] = biological target: T1, human 5-HT2A (h5-HT2A) receptor (Homo sapiens, UniProt P28223); test: FLIPR assay, human 5-HT2A receptor under agonist mode; format: cell-based; conditions: for RFU@10 μM: RFU=Fmax−Fmin
T1 construct: expressed in transfected cells; cultured under G418 and hygromycin B selection
Procedure: I. Assessment of the Effect of Exemplary Compounds of Formula I Targeting on Human 5-HT2A (h5-HT2A) Receptor Under Agonist Mode
• 1. Cells were cultured in cell culture medium (DMEM containing 10% FBS, 1×penicillin-streptomycin 300 μg/ml G418 and 100 μg/ml hygromycin B) at 37° C., 5% (v/v) CO2. • 2. One day before the assays, the cells were detached using TrypLE™ Express and cells were counted using cell counter. Only cells with >85% viability were used for the assay. • 3. 20000 cells/well were seeded in 30 μl/well culture medium to a 384-well cell plate and cells were incubated overnight at 37° C., 5% (v/v) CO2. • 4. On the assay day, 2×dye solution was prepared following the manual of the FLIPR® Calcium 6 Assay Kit: i. The dye was diluted with assay buffer (20 mM HEPES in 1× HBSS, PH7.4); ii. Probenecid was added to the final concentration of 5 mM; iii. Vortex vigorously for 1-2 minutes. • 5. Medium was removed from cell plate by flicking the cell plate on towel papers. • 6. 10 μl of assay buffer and 10 μl of 2×dye solution was added to each well of the cell plate. • 7. The cell plate was placed on plate shaker, the plate was agitated at 600 rpm for 2 minutes. The plate was incubated at 37° C. for 2 hours followed by additional 15-minute incubation at 25° C. • 8. 3×compound in assay buffer was prepared: a. Reference compounds were diluted to required concentration with DMSO. The compounds were added to a 384-well compound plate; b. Serial dilutions were performed; c. 10 mM test compounds were added to the compound plate, and 3-fold serial dilutions were performed. d. Transfer 60 nl/well of compounds from source plate to a 384-well compound plate (Corning, 3657) by using an Echo; e. Add 20 μl/well assay buffer to the compound plate; f. Mix the plate on plate shaker for 2 mins; • 9. The cell plate, compound plate and tips were put into FLIPR, 10 μl of 3× compound was transferred to the cell plate per well with FLIPR.
• i. The normalized fluorescence reading (RFU) was calculated as shown below, where Fmax and Fmin stand for maximum and minimum of calcium signal during defined time window: RFU=Fmax−Fmin. • ii. Calculate the percentage activation using following equation:
[formula] • Iii. Calculate EC50 by fitting % activation against log of compound concentrations with Hill equation using XLfit.
Exemplary compounds of Formula I were evaluated functionally using FLIPR assay for their effect on h5-HT2A receptor under agonist mode.

T1 sequence (P28223 whole entry): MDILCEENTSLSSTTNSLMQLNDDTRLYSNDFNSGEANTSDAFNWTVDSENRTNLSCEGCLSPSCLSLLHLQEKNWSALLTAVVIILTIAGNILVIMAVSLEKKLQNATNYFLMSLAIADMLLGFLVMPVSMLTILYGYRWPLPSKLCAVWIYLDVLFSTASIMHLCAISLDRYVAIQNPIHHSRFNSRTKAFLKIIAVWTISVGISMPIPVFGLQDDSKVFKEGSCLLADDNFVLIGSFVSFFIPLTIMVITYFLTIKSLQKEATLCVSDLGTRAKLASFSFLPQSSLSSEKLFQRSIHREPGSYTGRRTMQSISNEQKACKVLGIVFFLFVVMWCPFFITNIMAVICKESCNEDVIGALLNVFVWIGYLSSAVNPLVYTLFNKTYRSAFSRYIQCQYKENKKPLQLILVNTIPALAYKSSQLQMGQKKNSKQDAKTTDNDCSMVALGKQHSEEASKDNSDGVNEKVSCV

SMILES	Remaining Percentage ([1]; With NADPH, 0 min)	Remaining Percentage ([1]; With NADPH, 30 min)	Remaining Percentage ([1]; With NADPH, 60 min)	Remaining Percentage ([1]; Without NADPH, 0 min)	Remaining Percentage ([1]; Without NADPH, 30 min)	Remaining Percentage ([1]; Without NADPH, 60 min)	Predicted hepatic CL [1]	microsomal CLint at 2 μM [1]	half-life at 2 μM [2]	microsomal CLint at 2 μM [2]	Predicted hepatic CL ([2]; mouse liver microsomes)	Remaining Percentage ([2]; With NADPH, 0 min)	Remaining Percentage ([2]; With NADPH, 30 min)	Remaining Percentage ([2]; With NADPH, 60 min)	Remaining Percentage ([2]; Without NADPH, 0 min)	Remaining Percentage ([2]; Without NADPH, 30 min)	Remaining Percentage ([2]; Without NADPH, 60 min)	Predicted hepatic CL [3]	Remaining Percentage ([3]; With NADPH, 0 min)	RFU@10 μM ([4]; 5-HT2A (FLIPR))	further results
COc1ccc2[nH]cc(CCN(C)C)c2c1 [5-MeO DMT]	–	–	–	–	–	–	–	–	–	–	–	–	–	–	–	–	–	–	–	–	head twitches (mean) (Male, C57BL/6J mice; 1 mg/kg SC): 3.0; head twitches (mean) (Male, C57BL/6J mice; 3 mg/kg SC): 4.2; head twitches (mean) (Male, C57BL/6J mice; 10 mg/kg SC): 7.8; head twitches (mean) (Male, C57BL/6J mice; 30 mg/kg SC): 12.3; head twitch response (in words) (Male, C57BL/6J mice; SC, dose range as in the sentence): monotonic increase in head twitches; other behavioural signs (locomotion, core body temperature, 5-HT syndrome) in words (Male, C57BL/6J mice; SC): behavioural signs associated with 5-HT syndrome
O=C(O)Cc1ccccc1Nc1c(Cl)cccc1Cl [Diclofenac]	100.00%	10.72%	5.82%	100.00%	100.00%	96.90%	41.66 mL/min/kg	94.8 µL/min/mg	43.9 min	31.6 µL/min/mg	54.52 mL/min/kg	100.00%	51.50%	38.74%	100.00%	105.81%	102.49%	18.43 mL/min/kg	100.00%	–	T1/2 ([1]; rat liver microsomes, 2 μM, 0.5 mg/mL): 14.62 min; Scaled-up CLint ([2]; mouse liver microsomes): 138.28 mL/min/kg; Remaining Percentage ([3]; With NADPH, 30 min): 4.80%; Remaining Percentage ([3]; With NADPH, 60 min): 1.80%; Remaining Percentage ([3]; Without NADPH, 0 min): 100.00%; Remaining Percentage ([3]; Without NADPH, 30 min): 91.86%; Remaining Percentage ([3]; Without NADPH, 60 min): 91.86%
CN(C)CCc1c[nH]c2cccc(O)c12 [Psilocin, psilocin, reference compound]	–	–	–	–	–	–	–	–	–	–	–	–	–	–	–	–	–	–	–	416 and 308	–
CN(C)CCC1CNc2ccc(F)cc21 (stereo not shown) [Compound I-2, 2-(5-Fluoroindolin-3-yl)-N,N-dimethylethan-1-amine]	100.00%	14.82%	3.66%	100.00%	106.67%	104.17%	43.15 mL/min/kg	110 µL/min/mg	37.2 min	37.3 µL/min/mg	57.99 mL/min/kg	100.00%	56.32%	32.69%	100.00%	108.70%	97.83%	1.73 mL/min/kg	100.00%	622	CLint scaled at 2 μM [1]: 198 mL/min/kg; half-life at 2 μM [1]: 12.6 min; EC50 ([4]; 5-HT2A (FLIPR), read-out: EC50): 0.107 µM; CLint scaled at 2 μM [2]: 163 mL/min/kg; Remaining Percentage ([3]; With NADPH, 30 min): 111.62%; Remaining Percentage ([3]; With NADPH, 60 min): 95.59%; Remaining Percentage ([3]; Without NADPH, 0 min): 100.00%; Remaining Percentage ([3]; Without NADPH, 30 min): 115.22%; Remaining Percentage ([3]; Without NADPH, 60 min): 108.70%; CLint scaled at 2 μM [3]: 1.89 mL/min/kg; half-life at 2 μM [3]: 921 min; microsomal CLint at 2 μM [3]: 1.5 µL/min/mg
COc1cc2c(cc1OC)C(CCN(C)C)CN2 (stereo not shown) [Compound I-33, 2-(5,6-Dimethoxyindolin-3-yl)-N,N-dimethylethan-1-amine]	–	–	–	–	–	–	–	–	–	–	–	–	–	–	–	–	–	–	–	286	–
COc1ccc2c(c1)C(CCN(C)C)CN2C (stereo not shown) [Compound I-3, 2-(5-Methoxy-1-methylindolin-3-yl)-N,N-dimethylethan-1-amine]	–	–	–	–	–	–	–	–	–	–	–	–	–	–	–	–	–	–	–	1014	EC50 ([4]; 5-HT2A (FLIPR), read-out: EC50): 0.404 µM
[2H]C([2H])([2H])Oc1ccc2c(c1)C(CCN(C)C)CN2 (stereo not shown) [Compound I-11, 2-(5-(Methoxy-d3)indolin-3-yl)-N,N-dimethylethan-1-amine]	100.00%	22.43%	6.59%	100.00%	102.53%	85.67%	41.20 mL/min/kg	90.7 µL/min/mg	18.2 min	76.3 µL/min/mg	70.89 mL/min/kg	100.00%	31.50%	10.14%	100.00%	94.39%	80.37%	12.66 mL/min/kg	100.00%	980	CLint scaled at 2 μM [1]: 162 mL/min/kg; half-life at 2 μM [1]: 15.3 min; EC50 ([4]; 5-HT2A (FLIPR), read-out: EC50): 0.019 µM; CLint scaled at 2 μM [2]: 334 mL/min/kg; Remaining Percentage ([3]; With NADPH, 30 min): 72.72%; Remaining Percentage ([3]; With NADPH, 60 min): 45.89%; Remaining Percentage ([3]; Without NADPH, 0 min): 100.00%; Remaining Percentage ([3]; Without NADPH, 30 min): 97.58%; Remaining Percentage ([3]; Without NADPH, 60 min): 92.20%; CLint scaled at 2 μM [3]: 32.6 mL/min/kg; half-life at 2 μM [3]: 53.4 min; microsomal CLint at 2 μM [3]: 26 µL/min/mg
CN(C)CCc1c[nH]c2cccc(OP(=O)(O)O)c12 [psilocybin]	–	–	–	–	–	–	–	–	–	–	–	–	–	–	–	–	–	–	–	–	head twitches (mean) (Male, C57BL/6J mice; 0.1 mg/kg SC): 4.8; head twitches (mean) (Male, C57BL/6J mice; 0.3 mg/kg SC): 6.3; head twitches (mean) (Male, C57BL/6J mice; 1 mg/kg SC): 16.3; head twitches (mean) (Male, C57BL/6J mice; 3 mg/kg SC): 7.8; head twitches (mean) (Male, C57BL/6J mice; 10 mg/kg SC): 5.5; dose at which head twitch response reached a peak (Male, C57BL/6J mice; SC, 0.1-10 mg/kg tested): 1 mg/kg; other behavioural signs (locomotion, core body temperature, 5-HT syndrome) in words (Male, C57BL/6J mice; SC): decreased locomotion and decreased core body temperature
CN(C)CCc1c[nH]c2ccccc12 [DMT, N,N-dimethyltryptamine, reference compound]	–	–	–	–	–	–	–	–	–	–	–	–	–	–	–	–	–	–	–	381	EC50 ([4]; EC50, 5-HT2A (FLIPR)): 0.364 µM
